Data on 9 molecules can be found in PubChem BioAssay (NCI).

Values joined by “and” are separate entries in the source; they are usually repeats but may differ in a detail not shown here. Equal values may be shown once.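 Growth conditions: 96-well plates. Treatment: test compound, 48 hours, 5 concentrations. Analysis: linear interpolation between bracketing concentrations; unreached endpoints set to highest concentration. GI50 is the concentration that inhibits growth by half. TGI denotes the concentration required for complete inhibition of growth.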

Among the test systems are MALME-3M melanoma; CCRF-CEM leukemia; U251 CNS; SK-MEL-5 melanoma; MOLT-4 leukemia; OVCAR-5 ovarian; NCI-H522 lung; HCT-15 colon; OVCAR-4 ovarian; HT29 colon.
Test in all cases: inhibition of tumour cell growth, NCI panel, 48 h

For `COc1cc(-c2cn(-c3ccc(Cl)c(Cl)c3)c(=O)n2C(C)=O)cc(OC)c1OC`, the GI50 with MALME-3M melanoma is 15.3 µM; with CCRF-CEM leukemia, 16.1 µM; in the test with U251 CNS it was 8.86 µM; in the test with SK-MEL-5 melanoma, 12.7 µM; in the test on MOLT-4 leukemia it was 14.7 µM; with OVCAR-5 ovarian, 13 µM. The GI50 was 13.3 µM in the test on NCI-H522 lung, 18.1 µM in the test with HCT-15 colon, 5.21 µM in the test with OVCAR-4 ovarian and 6.32 µM in the test on HT29 colon. For the same molecule, the TGI in the test on MALME-3M melanoma was determined as 33.3 µM; in the test on CCRF-CEM leukemia, 59.9 µM; with U251 CNS, 21.3 µM; with SK-MEL-5 melanoma it was 25.3 µM; in the test with MOLT-4 leukemia, 31.6 µM; in the test with OVCAR-5 ovarian it was 27.3 µM. In addition, the TGI in the test on NCI-H522 lung was 30 µM; in the test with HCT-15 colon it was 45.9 µM; in the test on OVCAR-4 ovarian, more than 100 µM; with HT29 colon, 21.8 µM.
Consider `COC(=O)C1=C(C(=O)OC)SC(=CC#CC=C2SC(C(=O)OC)=C(C(=O)OC)S2)S1`, for which the TGI in the test on MALME-3M melanoma is 64.1 µM; in the test on CCRF-CEM leukemia, more than 100 µM; in the test with U251 CNS, 33.1 µM; in the test on SK-MEL-5 melanoma, more than 86.5 µM; in the test with MOLT-4 leukemia, more than 100 µM; in the test on OVCAR-5 ovarian it was more than 100 µM. Further, the TGI with NCI-H522 lung was 54.8 µM; in the test with HCT-15 colon, more than 45.1 µM; in the test with OVCAR-4 ovarian, 35.3 µM; with HT29 colon, more than 100 µM.
Take `CCn1c2ccc(O)cc2c2c(C)c3c[n+](C)ccc3c(C)c21`: the GI50 in the test with MALME-3M melanoma is 1.32 µM; in the test with CCRF-CEM leukemia it was 5.7 µM; in the test on U251 CNS, 0.307 µM; in the test on SK-MEL-5 melanoma, 2.27 µM; in the test with MOLT-4 leukemia, 2.06 µM; with OVCAR-5 ovarian it was 23.8 µM. The GI50 is 1.46 µM in the test on NCI-H522 lung, 29.4 µM in the test on HCT-15 colon, 5.83 µM in the test with OVCAR-4 ovarian and 13.2 µM in the test on HT29 colon. Besides, the TGI was 7.12 µM in the test on MALME-3M melanoma; more than 100 µM in the test with CCRF-CEM leukemia; 9.72 µM with U251 CNS; 10.8 µM in the test on SK-MEL-5 melanoma; 95.1 µM in the test with MOLT-4 leukemia; more than 100 µM with OVCAR-5 ovarian. Also, the TGI in the test with NCI-H522 lung is 10.4 µM; in the test on HCT-15 colon, more than 100 µM; in the test on OVCAR-4 ovarian, 47.1 µM; in the test on HT29 colon, more than 100 µM.
In the case of `COc1ccc2cc(-c3c(-c4ccncc4)nc(-c4ccc(S(C)(=O)=O)cc4C)n3C)ccc2c1`, the GI50 in the test on MALME-3M melanoma is 4.9 µM; in the test on CCRF-CEM leukemia it was 8.46 µM; in the test on U251 CNS, 11.2 µM; in the test on SK-MEL-5 melanoma it was 4.54 µM; in the test with MOLT-4 leukemia, 6.91 µM; in the test with OVCAR-5 ovarian, 14.7 µM. In addition, the GI50 is 4.45 µM with NCI-H522 lung, 7.97 µM in the test with HCT-15 colon, 5.3 µM with OVCAR-4 ovarian and 8.37 µM with HT29 colon. Further, the TGI with MALME-3M melanoma is more than 25 µM; in the test on CCRF-CEM leukemia it was more than 25 µM; in the test with U251 CNS, more than 25 µM; with SK-MEL-5 melanoma, more than 15.4 µM; in the test with MOLT-4 leukemia it was more than 25 µM; in the test on OVCAR-5 ovarian it was more than 25 µM. Besides, the TGI in the test with NCI-H522 lung was 19 µM; in the test on HCT-15 colon, more than 25 µM; with OVCAR-4 ovarian, 22 µM; in the test with HT29 colon, more than 25 µM.
For the molecule `COc1ccc(-c2oc3c(OC)c(OC)c(OC)c(OC)c3c(=O)c2OC)cc1OC`, the TGI in the test on MALME-3M melanoma was 68 µM; in the test on CCRF-CEM leukemia it was more than 100 µM; with U251 CNS, more than 100 µM; in the test with SK-MEL-5 melanoma, 66.3 µM; with MOLT-4 leukemia, more than 100 µM; with OVCAR-5 ovarian it was more than 100 µM. In addition, the TGI is 49.4 µM in the test on NCI-H522 lung, more than 100 µM in the test with HCT-15 colon, more than 100 µM in the test on OVCAR-4 ovarian and 64.8 µM with HT29 colon.
For the molecule `COc1ccc2c(c1)/C(=C\c1c(Cl)[nH]c3ccc(OC)cc13)C(=O)N2`, the GI50 with MALME-3M melanoma was 21 µM; in the test with CCRF-CEM leukemia, 32.5 µM; with U251 CNS, 19.7 µM; in the test on MOLT-4 leukemia, 46.9 µM; in the test on OVCAR-5 ovarian, 77.3 µM; in the test on NCI-H522 lung, 26.8 µM. The GI50 in the test on HCT-15 colon was more than 100 µM; in the test with OVCAR-4 ovarian it was 41.8 µM; in the test with HT29 colon it was 21.4 µM. In addition, the TGI with MALME-3M melanoma was 44.1 µM; in the test on CCRF-CEM leukemia, more than 100 µM; in the test with U251 CNS, 43.8 µM; in the test on SK-MEL-5 melanoma, 25.3 µM; in the test on MOLT-4 leukemia it was more than 100 µM; with OVCAR-5 ovarian, more than 100 µM. Moreover, the TGI with NCI-H522 lung is 74.4 µM; with HCT-15 colon, more than 100 µM; with OVCAR-4 ovarian, more than 100 µM; in the test on HT29 colon it was more than 100 µM.
On to `COc1ccc(Cn2c3c(cc(OS(=O)(=O)C(F)(F)F)c2=O)Cc2ccccc2-3)cc1`, for which the GI50 with MALME-3M melanoma is 20.7 µM; in the test on CCRF-CEM leukemia, 3.95 µM; with U251 CNS, 6.55 µM; with SK-MEL-5 melanoma, 7.3 µM; in the test on MOLT-4 leukemia, 4.18 µM; with OVCAR-5 ovarian, more than 100 µM. Besides, the GI50 in the test on NCI-H522 lung was 7.24 µM; with OVCAR-4 ovarian it was 9.56 µM; in the test with HT29 colon, 79 µM. The TGI in the test on MALME-3M melanoma was 50 µM and > 100 µM; with CCRF-CEM leukemia it was 50 µM and > 100 µM; in the test on U251 CNS, 50 µM and > 100 µM; with SK-MEL-5 melanoma it was 26 µM and 43.9 µM; with MOLT-4 leukemia, 50 µM and > 100 µM; in the test with OVCAR-5 ovarian, 50 µM and > 100 µM. Also, the TGI in the test with NCI-H522 lung is 50 µM and > 100 µM; with HCT-15 colon, 50 µM and > 100 µM; with OVCAR-4 ovarian, 50 µM and > 100 µM; in the test with HT29 colon, more than 100 µM.
In the case of `Cc1ccc(-c2cc(-c3ccccc3)c(C#N)c(=O)n2C2OC(CO)C(O)C(O)C2O)cc1` (stereo not drawn), the TGI is more than 100 µM in the test on MALME-3M melanoma; more than 100 µM in the test on CCRF-CEM leukemia; more than 100 µM with U251 CNS; more than 100 µM in the test on SK-MEL-5 melanoma; 85.3 µM in the test on MOLT-4 leukemia; more than 100 µM with OVCAR-5 ovarian. Besides, the TGI in the test on NCI-H522 lung, with HCT-15 colon, with OVCAR-4 ovarian and in the test on HT29 colon was more than 100 µM throughout.
As for `C=CC(=O)Nc1cc2c(Nc3ccc(F)c(Cl)c3)ncnc2cc1OCCCN1CCOCC1`, the GI50 was 2.41 µM and 6.17 µM in the test on MALME-3M melanoma; 2.19 µM and 2.63 µM in the test with CCRF-CEM leukemia; 3.57 µM and > 6.22 µM with U251 CNS; 3.3 µM and > 7.32 µM with SK-MEL-5 melanoma; 1.85 µM and 2.87 µM in the test on MOLT-4 leukemia; 0.879 µM and 5.82 µM in the test with OVCAR-5 ovarian. The GI50 is 0.546 µM and 0.119 µM in the test on NCI-H522 lung; 1.4 µM and 2.17 µM in the test on HCT-15 colon; 2.61 µM and 2.71 µM in the test on OVCAR-4 ovarian; 1.64 µM and 2.26 µM in the test with HT29 colon. Further, the TGI with MALME-3M melanoma is 5.84 µM and > 10 µM; in the test on CCRF-CEM leukemia, more than 27.4 µM; in the test on U251 CNS, 14.9 µM and > 10 µM; in the test with SK-MEL-5 melanoma, 13.3 µM and > 10 µM; in the test on MOLT-4 leukemia, 5.18 µM and > 9.25 µM; in the test on OVCAR-5 ovarian, 16.3 µM and > 10 µM. Besides, the TGI was 2.37 µM and 1.98 µM in the test with NCI-H522 lung; 3.6 µM and > 6.04 µM in the test with HCT-15 colon; 9.73 µM and > 10 µM with OVCAR-4 ovarian; 3.48 µM and > 8.38 µM in the test on HT29 colon.
